Assay results as given in PMC9688530, “Development of Ic-ELISA and Colloidal Gold Lateral Flow Immunoassay for the Determination of Cypermethrin in Agricultural Samples” (Biosensors, 2022).

Tested on: anti-CYP mAb
Test: colloidal gold LFIA strip
Assay type: binding, mouse
Set-up: key to T line color intensity: +++: More plus signs (+) mean darker red; ++-: More plus signs (+) mean darker red; +--: More plus signs (+) mean darker red; --- means no color band
Protocol: Colloidal gold particles were synthesized with trisodium citrate as a reducing agent according to our previous work. For the preparation of colloidal gold mAb, 6.65 μg/mL anti-CYP mAbs were added to the colloidal gold solution adjusted to pH 8.2 using 0.2 mol/L K2CO3 with shaking at room temperature for 1 h. BSA (1%) was used to block free colloidal gold particles. After 1 h, the mixture was centrifuged at 12,000 revolutions per minute (RPM) for 15 min to remove free anti-CYP mAbs. The centrifuged deposits were resuspended using one-tenth of the original volume of sodium borate solution (0.01 mol/L) containing 2% BSA and 3% sucrose and preserved at 4 °C.
As depicted in Figure 1A, the LFIA strip was assembled into four components. The center section of a PVC plate was affixed to an NC membrane. The sample pad and absorption pad were stuck on both ends of the PVC plate, and both overlapped with the NC membrane by 1 mm. A total of 2 mg/mL of hapten 5-BSA and 0.5 mg/mL of GAMA were sprayed onto the NC membrane as the test line and control line, respectively, with 5 mm intervals by an automatic dispenser. After drying at 37 °C for 12 h, the fabricated cards were cut into 4 mm wide LFIA strips.
One hundred microliters of the CYP standard solution and 4 μL of the colloidal gold mAb solution were added into a micropore and mixed. After 5 min, an LFIA strip was inserted into the mixture solution. During the mixed solution migration from the sample pad to the absorbent pad, colloidal gold mAb was captured by the T and C lines, resulting in the appearance of color bands within 10 min. When the T line disappeared or the color intensity of the T line was lower than that of the C line, the result was positive (Figure 1B,C). When the color intensity of the T line was not less than that of the C line, the result was negative (Figure 1D).
The sensitivity of the LFIA strip was evaluated by a series of CYP standard solutions (0.7, 0.6, 0.5, 0.4, 0.3, 0.2, 0.1, 0 μg/mL). For qualitative analysis, the sensitivity of the LFIA strip was appraised by the visual LOD (vLOD) and the cut-off value. The vLOD is the lowest concentration of CYP at which the lighter color of the T line is observed compared to the C line. The cut-off value is the minimum CYP concentration at which no color band appears on the T line.
The CRs of the LFIA were calculated with the following equation:CR (%) = (vLOD of CYP/vLOD of analogues) × 100%.

## CC1(C)C(C=C(Cl)Cl)C1C(=O)OC(C#N)c1cccc(Oc2ccccc2)c1 (centres unmarked) [CYP, Cypermethrin]
0.3 µg/mL, Acetone 10 v%
  T line color intensity: +++
0.3 µg/mL, Acetone 20 v%
  T line color intensity: +++
0.3 µg/mL, Acetone 30 v%
  T line color intensity: ++-
0.3 µg/mL, Acetone 40 v%
  T line color intensity: +--
0.3 µg/mL, Acetonitrile 10 v%
  T line color intensity: +++
0.3 µg/mL, Acetonitrile 20 v%
  T line color intensity: ++-
0.3 µg/mL, Acetonitrile 30 v%
  T line color intensity: +--
0.3 µg/mL, Acetonitrile 40 v%
  T line color intensity: ---
0.3 µg/mL, Dimethyl sulfoxide 10 v%
  T line color intensity: ++-
0.3 µg/mL, Dimethyl sulfoxide 20 v%
  T line color intensity: +++
0.3 µg/mL, Dimethyl sulfoxide 30 v%
  T line color intensity: ++-
0.3 µg/mL, Dimethyl sulfoxide 40 v%
  T line color intensity: ++-
0.3 µg/mL, Methanol 10 v%
  T line color intensity: +++
0.3 µg/mL, Methanol 20 v%
  T line color intensity: +++
0.3 µg/mL, Methanol 30 v%
  T line color intensity: ++-
0.3 µg/mL, Methanol 40 v%
  T line color intensity: +--
0.3 µg/mL, Na+ 0.07 mol/L
  T line color intensity: +++
0.3 µg/mL, Na+ 0.14 mol/L
  T line color intensity: +++
0.3 µg/mL, Na+ 0.25 mol/L
  T line color intensity: +++
0.3 µg/mL, Na+ 0.5 mol/L
  T line color intensity: ++-
0.3 µg/mL, Na+ 1 mol/L
  T line color intensity: ++-
0.3 µg/mL, Na+ 2 mol/L
  T line color intensity: +--
0.3 µg/mL, pH 6
  T line color intensity: +++
0.3 µg/mL, pH 7
  T line color intensity: +++
0.3 µg/mL, pH 7.4
  T line color intensity: +++
0.3 µg/mL, pH 8
  T line color intensity: ++-
0.3 µg/mL, pH 9
  T line color intensity: +--
0.4 µg/mL, Acetone 10 v%
  T line color intensity: ++-
0.4 µg/mL, Acetone 20 v%
  T line color intensity: +--
0.4 µg/mL, Acetone 30 v%
  T line color intensity: +--
0.4 µg/mL, Acetone 40 v%
  T line color intensity: ---
0.4 µg/mL, Acetonitrile 10 v%
  T line color intensity: ++-
0.4 µg/mL, Acetonitrile 20 v%
  T line color intensity: +--
0.4 µg/mL, Acetonitrile 30 v%
  T line color intensity: +--
0.4 µg/mL, Acetonitrile 40 v%
  T line color intensity: ---
0.4 µg/mL, Dimethyl sulfoxide 10 v%
  T line color intensity: +--
0.4 µg/mL, Dimethyl sulfoxide 20 v%
  T line color intensity: +--
0.4 µg/mL, Dimethyl sulfoxide 30 v%
  T line color intensity: +--
0.4 µg/mL, Dimethyl sulfoxide 40 v%
  T line color intensity: +--
0.4 µg/mL, Methanol 10 v%
  T line color intensity: +--
0.4 µg/mL, Methanol 20 v%
  T line color intensity: +--
0.4 µg/mL, Methanol 30 v%
  T line color intensity: +--
0.4 µg/mL, Methanol 40 v%
  T line color intensity: +--
0.4 µg/mL, Na+ 0.07 mol/L
  T line color intensity: ++-
0.4 µg/mL, Na+ 0.14 mol/L
  T line color intensity: ++-
0.4 µg/mL, Na+ 0.25 mol/L
  T line color intensity: ++-
0.4 µg/mL, Na+ 0.5 mol/L
  T line color intensity: ++-
0.4 µg/mL, Na+ 1 mol/L
  T line color intensity: ++-
0.4 µg/mL, Na+ 2 mol/L
  T line color intensity: +--
0.4 µg/mL, pH 6
  T line color intensity: ++-
0.4 µg/mL, pH 7
  T line color intensity: +--
0.4 µg/mL, pH 7.4
  T line color intensity: ++-
0.4 µg/mL, pH 8
  T line color intensity: +--
0.4 µg/mL, pH 9
  T line color intensity: ---
0.6 µg/mL, Acetone 10 v%
  T line color intensity: +--
0.6 µg/mL, Acetone 20 v%
  T line color intensity: +--
0.6 µg/mL, Acetone 30 v%
  T line color intensity: ---
0.6 µg/mL, Acetone 40 v%
  T line color intensity: ---
0.6 µg/mL, Acetonitrile 10 v%
  T line color intensity: +--
0.6 µg/mL, Acetonitrile 20 v%
  T line color intensity: ---
0.6 µg/mL, Acetonitrile 30 v%
  T line color intensity: ---
0.6 µg/mL, Acetonitrile 40 v%
  T line color intensity: ---
0.6 µg/mL, Dimethyl sulfoxide 10 v%
  T line color intensity: ---
0.6 µg/mL, Dimethyl sulfoxide 20 v%
  T line color intensity: ---
0.6 µg/mL, Dimethyl sulfoxide 30 v%
  T line color intensity: ---
0.6 µg/mL, Dimethyl sulfoxide 40 v%
  T line color intensity: ---
0.6 µg/mL, Methanol 10 v%
  T line color intensity: ---
0.6 µg/mL, Methanol 20 v%
  T line color intensity: +--
0.6 µg/mL, Methanol 30 v%
  T line color intensity: +--
0.6 µg/mL, Methanol 40 v%
  T line color intensity: ---
0.6 µg/mL, Na+ 0.07 mol/L
  T line color intensity: ---
0.6 µg/mL, Na+ 0.14 mol/L
  T line color intensity: +--
0.6 µg/mL, Na+ 0.25 mol/L
  T line color intensity: +--
0.6 µg/mL, Na+ 0.5 mol/L
  T line color intensity: +--
0.6 µg/mL, Na+ 1 mol/L
  T line color intensity: +--
0.6 µg/mL, Na+ 2 mol/L
  T line color intensity: ---
0.6 µg/mL, pH 6
  T line color intensity: ---
0.6 µg/mL, pH 7
  T line color intensity: ---
0.6 µg/mL, pH 7.4
  T line color intensity: ---
0.6 µg/mL, pH 8
  T line color intensity: ---
0.6 µg/mL, pH 9
  T line color intensity: ---
Optimal buffer
  cut-off value: 0.6 µg/mL
  visual limit of detection (vLOD): 0.3 µg/mL
